Legend:
Format in all cases: biochemical
[1] = target: T1, HTRA4^PD/PDZ, HTRA4^FL (Homo sapiens, UniProt P83105); test: H2-OPT selectivity assay, HTRA4; details: 6 nM HTRA4^FL, 2 µM CKP (0.5 mM 7mer-ABP)
T1 construct: purchased Abcam (FL form); the PD/PDZ form was made in house in E. coli ab134444
T1 sequence (P83105 32-476): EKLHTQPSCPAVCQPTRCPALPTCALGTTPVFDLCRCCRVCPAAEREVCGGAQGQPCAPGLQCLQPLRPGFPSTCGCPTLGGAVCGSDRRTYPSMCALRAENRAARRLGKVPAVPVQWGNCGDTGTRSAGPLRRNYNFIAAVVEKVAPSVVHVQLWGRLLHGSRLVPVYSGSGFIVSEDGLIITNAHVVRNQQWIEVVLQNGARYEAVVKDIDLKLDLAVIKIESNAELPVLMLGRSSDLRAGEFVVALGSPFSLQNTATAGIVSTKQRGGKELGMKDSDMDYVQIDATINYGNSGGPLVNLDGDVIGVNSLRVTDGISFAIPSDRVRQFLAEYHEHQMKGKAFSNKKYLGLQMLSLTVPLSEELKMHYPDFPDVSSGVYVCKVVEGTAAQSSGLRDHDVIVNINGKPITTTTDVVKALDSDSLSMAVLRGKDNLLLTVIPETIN
Method: (§1) Assays with the fluorescence-quenched synthetic substrate Mca-IRRVSYSFK(Dnp)K (H2-OPT)[38],[60] were carried out essentially as described. CKP stock solutions in DMSO were diluted in TNC buffer (dilution series for IC50 determinations, or final concentration of 2 µM for selectivity assay or as indicated for HTRA1/4 mutants) and incubated with enzymes in 96-well black optical bottom plates for 60 min at 37 °C. For selectivity experiments we used the 7mer-ABP as inhibitor, which was incubated with the proteases for 15 min at 37 °C. A 10 mM stock solution of H2-OPT in DMSO was diluted with water, prewarmed at 37 °C and then added to the CKP-enzyme mixtures. The final concentrations in the reaction mixtures were: 1 nM HTRA1^FL, 3 nM HTRA1^PD/PDZ, 1 nM HTRA1^PD, 1 nM HTRA2^PD/PDZ, 3 nM HTRA3^FL, 60 nM HTRA3^PD/PDZ, 6 nM HTRA4^FL, 1 µM HTRA4^PD/PDZ, 1 nM mouse HTRA1^PD, 25 nM HTRA1^PD-A202Y, 1 µM HTRA4^PD/PDZ-Y200A, 0.5 mM 7mer-ABP, 5 µM H2-OPT, and 0.25% DMSO. The kinetics of substrate cleavage was measured at 37 °C on a SpectraMax M5 microplate reader with excitation of 328 nm and emission of 393 nm. The determined initial rates of cleavage were expressed as percent of control (DMSO control) after subtracting the baseline rates (without enzyme). IC50 values were determined by Sigmoidal 4PL modeling of multiple data points from serial dilutions of CKPs using Prism 9 software (GraphPad). For selectivity assays with HTRA1-4^PD/PDZ constructs, the specific activities of the enzymes and enzyme:CKP inhibitor ratios were as follows: HTRA1^PD/PDZ, 12560 mRFU/min/nM – 1:667; HTRA2^PD/PDZ, 32300 mRFU/min/nM – 1:2000; HTRA3^PD/PDZ, 962 mRFU/min/nM – 1:33; HTRA4^PD/PDZ, 18 mRFU/min/nM – 1:2.

[2] = target: T2, HTRA4^PD/PDZ, HTRA4^FL (Homo sapiens, UniProt P83105); test: H2-OPT selectivity assay, HTRA4; details: 1 µM HTRA4^PD/PDZ, 2 µM CKP (0.5 mM 7mer-ABP), 5 µM H2-OPT
T2 construct: purchased Abcam (FL form); the PD/PDZ form was made in house in E. coli ab134444
T2 sequence (P83105 153-476): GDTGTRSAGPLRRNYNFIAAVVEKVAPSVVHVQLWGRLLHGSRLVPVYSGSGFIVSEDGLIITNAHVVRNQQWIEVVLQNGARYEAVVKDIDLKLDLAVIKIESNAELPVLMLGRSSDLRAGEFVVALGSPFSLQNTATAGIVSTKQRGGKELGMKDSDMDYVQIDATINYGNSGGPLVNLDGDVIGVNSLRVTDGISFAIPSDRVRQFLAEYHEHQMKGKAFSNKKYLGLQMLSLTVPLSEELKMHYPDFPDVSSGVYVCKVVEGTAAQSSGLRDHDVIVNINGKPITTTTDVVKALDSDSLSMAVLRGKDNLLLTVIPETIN
Method: as §1

[3] = target: T3, HTRA2^PD/PDZ (Homo sapiens, UniProt O43464); test: H2-OPT selectivity assay, HTRA2; details: 1 nM HTRA2^PD/PDZ, 2 µM CKP (0.5 mM 7mer-ABP), 5 µM H2-OPT
T3 construct: Human HTRA2^PD/PDZ (A134-E458) was from R & D Systems; purchased R & D Systems 1458-HT-100
T3 sequence (O43464 134-458): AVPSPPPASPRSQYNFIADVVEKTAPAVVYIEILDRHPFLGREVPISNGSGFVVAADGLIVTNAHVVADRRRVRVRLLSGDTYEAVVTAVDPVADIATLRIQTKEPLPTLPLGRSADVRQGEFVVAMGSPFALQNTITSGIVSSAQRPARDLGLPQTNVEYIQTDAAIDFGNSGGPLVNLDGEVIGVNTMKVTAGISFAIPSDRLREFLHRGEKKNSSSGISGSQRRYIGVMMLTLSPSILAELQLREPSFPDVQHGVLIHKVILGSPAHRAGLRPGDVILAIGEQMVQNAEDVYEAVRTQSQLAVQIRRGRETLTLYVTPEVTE
Method: as §1, with “For selectivity assays with HTRA1-4^PD/PDZ constructs, the specific activities of the enzymes and enzyme:CKP inhibitor ratios were as follows: HTRA1^PD/PDZ, 12560 mRFU/min/nM – 1:667; HTRA2^PD/PDZ, 32300 mRFU/min/nM – 1:2000; HTRA3^PD/PDZ, 962 mRFU/min/nM – 1:33; HTRA4^PD/PDZ, 18 mRFU/min/nM – 1:2.” left out

DPMFKLV-phosphonate [7mer-ABP]
significantly inhibited: Inhibition of HTRA4^FL, H2-OPT (% of control) [1] | Inhibition of HTRA4^PD/PDZ, H2-OPT (% of control) [2] | Inhibition of HTRA2^PD/PDZ, H2-OPT (% of control) [3]

— PMC11111691, “Cystine-knot peptide inhibitors of HTRA1 bind to a cryptic pocket within the active site region” (Nature Communications, 2024)
